The subject of experiment [1] is Aβ production in Chinese hamster ovary cells that over-express human APP695 with the London and Swedish mutations. As to the kind of experiment: Cellular Aβ IC50 determination (Aβ40 sandwich ELISA). The format is cell-based. The settings on record: Cricetulus griseus; cellular Aβ production; read-out: IC50. As for the experimental part:
The potency of compounds against memapsin 2 activity was determined in a cellular assay of Aβ production. […] Chinese hamster ovary cells that over-express human APP695 with the London and Swedish mutations were seeded in multi-well plates at 10% confluency. Compounds are dissolved in DMSO to concentrations near 1 mM, and diluted into culture media to a final concentration near 4 μM (final 0.4% DMSO). […] Aliquots were removed and assayed for Aβ40 content using a sandwich ELISA (BioSource International). Amount of Aβ40 over the range of concentration of compounds, relative to control incubations, were fit to a 4-parameter IC50 model.
(In general: ELISA stands for enzyme-linked immunosorbent assay.)

Another experiment has as its target memapsin 2 (Homo sapiens, UniProt P56817). As to the kind of experiment: Inhibition of memapsin 2 beta-secretase activity (fluorogenic substrate FS-2). The following applies: memapsin 2, pH 4, 37° C., 20 minutes pre-incubation; read-out: M2Ki. The format is biochemical. In a few lines:
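Memapsin 2 pre-incubated 20 min with compound at pH 4, 37° C, then FS-2 substrate (MCA-SEVNLDAEFK-DNP, APP Swedish cleavage site) added. Rate of fluorescence increase compared with uninhibited controls, fitted to a tight-binding inhibition model.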

These results are taken from patent publication US20100286145A1, “ISOPHTHALAMIDE DERIVATIVES INHIBITING BETA-SECRETASE ACTIVITY” (CoMentis, Inc., priority 2007, published 2010).

Sequence of memapsin 2 (P56817 46-501): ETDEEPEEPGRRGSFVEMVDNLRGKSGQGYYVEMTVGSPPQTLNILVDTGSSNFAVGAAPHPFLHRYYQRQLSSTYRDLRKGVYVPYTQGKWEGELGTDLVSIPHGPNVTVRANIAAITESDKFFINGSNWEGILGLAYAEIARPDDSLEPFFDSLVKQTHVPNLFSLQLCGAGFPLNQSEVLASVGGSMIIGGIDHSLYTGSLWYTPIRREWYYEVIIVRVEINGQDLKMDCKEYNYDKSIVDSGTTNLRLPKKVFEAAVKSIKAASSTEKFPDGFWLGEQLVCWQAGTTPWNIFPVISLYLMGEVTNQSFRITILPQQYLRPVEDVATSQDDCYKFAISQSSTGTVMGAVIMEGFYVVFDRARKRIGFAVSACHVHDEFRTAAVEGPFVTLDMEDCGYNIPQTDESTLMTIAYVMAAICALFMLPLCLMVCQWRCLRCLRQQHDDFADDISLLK

As usually defined, the IC50 is the concentration that inhibits the measured activity by half. As for `COc1cccc(CNC[C@@H](O)[C@H](Cc2ccccc2)NC(=O)c2cc(OC)cc(C(=O)N(Cc3nc(C)cs3)C(C)C)c2)c1` [Compound 25, N1-((2S,3R)-3-hydroxy-4-(3-methoxybenzylamino)-1-phenylbutan-2-yl)-N3-isopropyl-5-methoxy-N3-((4-methylthiazol-2-yl)methyl)isophthalamide], the IC50 in experiment [1] was less than 1000 nM. Further, the Ki at memapsin 2 was less than 300 nM.

As to `Cc1csc(CN(C)C(=O)c2cccc(C(=O)N[C@@H](Cc3ccccc3)[C@H](O)CNCc3ccncc3)c2)n1` [Compound 26, N1-((2S,3R)-3-hydroxy-1-phenyl-4-(pyridin-4-ylmethylamino)butan-2-yl)-N3-methyl-N3-((4-methylthiazol-2-yl)methyl)isophthalamide], in experiment [1], the IC50 was more than 5000 nM. Further, the Ki at memapsin 2 was more than 501 nM.

For `Cc1csc(CN(C)C(=O)c2cccc(C(=O)N[C@@H](Cc3ccccc3)[C@H](O)CNCc3cc(C(F)(F)F)cc(C(F)(F)F)c3)c2)n1` [Compound 27, N1-((2S,3R)-4-(3,5-bis(trifluoromethyl)benzylamino)-3-hydroxy-1-phenylbutan-2-yl)-N3-methyl-N3-((4-methylthiazol-2-yl)methyl)isophthalamide], the IC50 in experiment [1] was less than 1000 nM. Also, the Ki at memapsin 2 is less than 300 nM.

Regarding `Cc1csc(CN(C)C(=O)c2cccc(C(=O)N[C@@H](Cc3ccccc3)[C@H](O)CNCc3cc(F)cc(C(F)(F)F)c3)c2)n1` [Compound 28, N1-((2S,3R)-4-(3-fluoro-5-(trifluoromethyl)benzylamino)-3-hydroxy-1-phenylbutan-2-yl)-N3-methyl-N3-((4-methylthiazol-2-yl)methyl)isophthalamide], the half-maximal inhibitory concentration (IC50) in experiment [1] was less than 1000 nM. Moreover, at memapsin 2, the Ki is less than 300 nM.

In the case of `Cc1csc(CN(C)C(=O)c2cccc(C(=O)N[C@@H](Cc3ccccc3)[C@H](O)CNCc3cncc(C4CC4)c3)c2)n1` [Compound 30, N1-((2S,3R)-4-((5-cyclopropylpyridin-3-yl)methylamino)-3-hydroxy-1-phenylbutan-2-yl)-N3-methyl-N3-((4-methylthiazol-2-yl)methyl)isophthalamide], the IC50 in experiment [1] is less than 1000 nM. Moreover, the Ki on memapsin 2 is less than 300 nM.

In the case of `COc1cc(C(=O)N[C@@H](Cc2ccccc2)[C@H](O)CNCc2cccc(C(F)(F)F)c2)cc(C(=O)N(C)Cc2nc(C)cs2)c1` [Compound 31, N1-((2S,3R)-3-hydroxy-1-phenyl-4-(3-(trifluoromethyl)benzylamino)butan-2-yl)-5-methoxy-N3-methyl-N3-((4-methylthiazol-2-yl)methyl)isophthalamide], the half-maximal inhibitory concentration (IC50) in experiment [1] is less than 1000 nM. Moreover, on memapsin 2, the Ki is less than 300 nM.

On to `COc1cccc(CNC[C@@H](O)[C@H](Cc2ccccc2)NC(=O)c2cc(N)cc(C(=O)N(C)Cc3nc(C)cs3)c2)c1` [Compound 34, 5-amino-N1-((2S,3R)-3-hydroxy-4-(3-methoxybenzylamino)-1-phenylbutan-2-yl)-N3-methyl-N3-((4-methylthiazol-2-yl)methyl)isophthalamide], for which the IC50 in experiment [1] was 1000 to 5000 nM. Also, the Ki at memapsin 2 was more than 501 nM.

As for `COc1cccc(CNC[C@@H](O)[C@H](Cc2ccccc2)NC(=O)c2cc(C(=O)NCCO)cc(C(=O)N(C)Cc3nc(C)cs3)c2)c1` [Compound 44, N1-((2S,3R)-3-hydroxy-4-(3-methoxybenzylamino)-1-phenylbutan-2-yl)-N3-(2-hydroxyethyl)-N5-methyl-N5-((4-methylthiazol-2-yl)methyl)benzene-1,3,5-tricarboxamide], in experiment [1], the IC50 was less than 1000 nM. For the same molecule, the Ki on memapsin 2 was less than 300 nM.

Consider `Cc1csc(CN(C)C(=O)c2cccc(C(=O)N[C@@H](Cc3ccccc3)[C@H](O)CNCc3cncc(N(C)C)c3)c2)n1` [Compound 47, N1-((2S,3R)-4-((5-(dimethylamino)pyridin-3-yl)methylamino)-3-hydroxy-1-phenylbutan-2-yl)-N3-methyl-N3-((4-methylthiazol-2-yl)methyl)isophthalamide], for which the IC50 in experiment [1] was less than 1000 nM. The Ki on memapsin 2 is less than 300 nM.

Regarding `COc1cccc(CNC[C@@H](O)[C@H](Cc2ccccc2)NC(=O)c2cc(CO)cc(C(=O)N(C)Cc3nc(C)cs3)c2)c1` [Compound 49, N1-((2S,3R)-3-hydroxy-4-(3-methoxybenzylamino)-1-phenylbutan-2-yl)-5-(hydroxymethyl)-N3-methyl-N3-((4-methylthiazol-2-yl)methyl)isophthalamide], the IC50 in experiment [1] was less than 1000 nM. For the same molecule, the Ki at memapsin 2 is less than 300 nM.

As for `COc1cccc(F)c1CNC[C@@H](O)[C@H](Cc1ccccc1)NC(=O)c1cccc(C(=O)N(C)Cc2nc(C)cs2)c1` [Compound 50, N1-((2S,3R)-4-(2-fluoro-6-methoxybenzylamino)-3-hydroxy-1-phenylbutan-2-yl)-N3-methyl-N3-((4-methylthiazol-2-yl)methyl)isophthalamide], in experiment [1], the IC50 is less than 1000 nM. For the same molecule, the Ki at memapsin 2 is less than 300 nM.

As for `Cc1csc(CN(C(=O)c2cccc(C(=O)N[C@@H](Cc3ccccc3)[C@H](O)CNCc3cccc(OC(F)(F)F)c3)c2)C2CC2)n1` [Compound 51, N1-cyclopropyl-N3-((2S,3R)-3-hydroxy-1-phenyl-4-(3-(trifluoromethoxy)benzylamino)butan-2-yl)-N1-((4-methylthiazol-2-yl)methyl)isophthalamide], in experiment [1], the IC50 was less than 1000 nM. For the same molecule, on memapsin 2, the Ki was less than 300 nM.

Regarding `Cc1csc(CN(C)C(=O)c2cccc(C(=O)N[C@@H](Cc3ccccc3)[C@H](O)CNCc3cccc(C(C)(C)C)c3)c2)n1` [Compound 52, N1-((2S,3R)-4-(3-tert-butylbenzylamino)-3-hydroxy-1-phenylbutan-2-yl)-N3-methyl-N3-((4-methylthiazol-2-yl)methyl)isophthalamide], the half-maximal inhibitory concentration (IC50) in experiment [1] was less than 1000 nM. In addition, the Ki on memapsin 2 is less than 300 nM.

Take `COc1cc(C(=O)N[C@@H](Cc2ccccc2)[C@H](O)CNCc2ccnc(C(C)C)c2)cc(C(=O)N(C)Cc2nc(C)cs2)c1` [Compound 53, N1-((2S,3R)-3-hydroxy-4-((2-isopropylpyridin-4-yl)methylamino)-1-phenylbutan-2-yl)-5-methoxy-N3-methyl-N3-((4-methylthiazol-2-yl)methyl)isophthalamide]: in experiment [1], the IC50 was less than 1000 nM. Also, at memapsin 2, the Ki is less than 300 nM.

Consider `COC(=O)c1cc(CNC[C@@H](O)[C@H](Cc2ccccc2)NC(=O)c2cccc(C(=O)N(C)Cc3nc(C)cs3)c2)cc(OC)c1` [Compound 54, methyl 3-(((2R,3S)-2-hydroxy-3-(3-(methyl((4-methylthiazol-2-yl)methyl)carbamoyl)benzamido)-4-phenylbutylamino)methyl)-5-methoxybenzoate], for which, in experiment [1], the half-maximal inhibitory concentration (IC50) was less than 1000 nM. The Ki on memapsin 2 was less than 300 nM.

As to `Cc1csc(CN(C)C(=O)c2cccc(C(=O)N[C@@H](Cc3ccccc3)[C@H](O)CNCc3cc(C(C)C)cnc3F)c2)n1` [Compound 56, N1-((2S,3R)-4-((2-fluoro-5-isopropylpyridin-3-yl)methylamino)-3-hydroxy-1-phenylbutan-2-yl)-N3-methyl-N3-((4-methylthiazol-2-yl)methyl)isophthalamide], in experiment [1], the IC50 is less than 1000 nM. Besides, the Ki at memapsin 2 is less than 300 nM.

As to `C[C@@H](NC(=O)c1cc(C(=O)N[C@@H](Cc2ccccc2)[C@H](O)CNCc2cccc(C(C)(C)C)c2)cc(N(C)S(C)(=O)=O)c1)c1ccccc1` [Compound 58, N1-((2S,3R)-4-(3-tert-butylbenzylamino)-3-hydroxy-1-phenylbutan-2-yl)-5-(N-methylmethylsulfonamido)-N3-((R)-1-phenylethyl)isophthalamide], the 50% inhibitory concentration (IC50) in experiment [1] is less than 1000 nM. For the same molecule, on memapsin 2, the Ki was less than 300 nM.
